Active and inactive are the calls of the source. The rule behind the calls is not given here.
Experiments:
[1] = system: Cyclamen persicum; assay: Phytotoxicity in Cyclamen persicum seedlings assessed as decrease in foliar dry mass at 50 ug a.i/ml applied as spray; assay type: organism-based; parameters: scale not given: the % may be the effect or the level left; conditions: in vivo, other
[2] = system: Fusarium oxysporum f. sp. cyclaminis; assay: Antifungal activity against 1 CFU of Fusarium oxysporum f. sp. cyclaminis infested cyclamen seedlings assessed as delay in development of decrease severity at 50 ug a.i/ml applied as spray; assay type: functional, organism-based
[3] = system: Cyclamen persicum; assay: Phytotoxicity in Cyclamen persicum seedlings assessed as visible damage on leaves at 10 to 50 ug a.i/ml applied as spray; assay type: organism-based; conditions: in vivo, topical_or_ocular
[4] = system: Fusarium oxysporum f. sp. cyclaminis; assay: Antifungal activity against Fusarium oxysporum f. sp. cyclaminis infested cyclamen seedlings assessed as increase in foliar dry mass at 10 to 50 ug a.i/ml applied as spray; assay type: functional, organism-based
[5] = system: Cyclamen persicum; assay: Phytotoxicity in Cyclamen persicum seedlings assessed as decrease in effect on flower number at 10 to 50 ug a.i/ml applied as spray; assay type: organism-based; conditions: in vivo, other
[6] = system: Fusarium oxysporum f. sp. cyclaminis; assay: Antifungal activity against 1 CFU of Fusarium oxysporum f. sp. cyclaminis infested cyclamen seedlings assessed as increase in foliar dry mass at 50 ug a.i/ml applied as spray relative to untreated control; assay type: functional, organism-based
[7] = system: Cyclamen persicum; assay: Phytotoxicity in Cyclamen persicum seedlings assessed as decrease in foliar dry mass at 10 to 50 ug a.i/ml applied as spray; assay type: organism-based; parameters: scale not given: the % may be the effect or the level left; conditions: in vivo, other
[8] = system: Fusarium oxysporum f. sp. cyclaminis; assay: Antifungal activity against […] of Fusarium oxysporum f. sp. cyclaminis infested cyclamen seedlings assessed as delay in development of disease symptoms at 50 ug a.i/ml applied as spray relative to untreated control; assay type: functional, organism-based
[9] = system: Cyclamen persicum; assay: Phytotoxicity in Cyclamen persicum seedlings assessed as decrease in effect on flower quality at 10 to 50 ug a.i/ml applied as spray; assay type: organism-based; conditions: in vivo, other
[10] = system: Fusarium oxysporum f. sp. cyclaminis; assay: Antifungal activity against Fusarium oxysporum f. sp. cyclaminis infested cyclamen seedlings assessed as delay in development of disease symptoms at 50 ug a.i/ml applied as spray; assay type: functional

CSC(=O)c1cccc2nnsc12 [ACIBENZOLAR-S-METHYL]
Activity [1]: 65% | Activity [2]: Active | Activity [3]: Non-toxic | Activity [4]: Active | Activity [5]: Non-toxic | Activity [6]: Active | Activity [7]: 36% | Activity [8]: Active | Activity [9]: Non-toxic | Time [10]: 20 days
